From US10821079B2, “PKC activators and combinations thereof” (Cognitive Research Enterprises, Inc., priority 2011, dated 2020)

How the values were obtained:
[1] = test system: rat primary hippocampal neurons; test: Neurotoxic effect of Aβ1-42 assemblies, MTT viability; format: cell-based; conditions: 20 hr
Procedure: (§1) Viability of cells was measured by MTT assay. MTT (3-(4,5-Dimethylthiazol-2-yl)-2,5-diphenyltetrazolium bromide) is a tetrazolium salt that is cleaved to formazan by the succinate dehydrogenase, which is only active in viable cells. After solubilization of the formazan, the amount of dye can be quantified with a microplate reader at 570 nm along with a reference of 630 nm. For MTT assay, 5×104 primary rat hippocampal neurons from 18-day-old embryonic Sprague-Dawley rat brains were plated on each well of 24-well plates coated with poly-D-lysine. After treatment, the cells were washed with 1×PBS and were incubated with 200 μl of 1 mg/ml MTT solution (Sigma, USA) at 37° C. for 2 hr. Then the MTT-solution was removed and the cells were lysed with 200 μl isopropanol containing 0.04 M HCl and 160 mM NaOH for 10 min. Finally, the reading was done at 570 nm and 630 nm. All the samples were done in triplicates and the data was represented as the percentage of control.
To assess the neurotoxic effect of different sized oligomers, rat primary hippocampal neurons were treated with variable concentrations of these Aβ1-42 species for 20 hr. Viability of the treated cells was compared to untreated cells using the MTT assay.

[2] = test system: primary rat hippocampal neurons; test: Neuroprotection against ASPD induced toxicity, MTT, primary neurons; format: cell-based
Procedure: as §1
All studies used 50 nM ASPDs. The viability of the cells were measured by the MTT assay.

[3] = test system: differentiated human SH-SY5Y cells; test: Neuroprotection against ASPD, MTT, SH-SY5Y cells; format: cell-based; conditions: ASPD alone
PKC-ε [4] = test: PKC-ε level in primary neurons (immunofluorescence, Western Blot); format: cell-based, rat; conditions: primary neurons, 20 hr ASPD
Procedure: (§2) Cells were harvested in homogenizing buffer containing 10 mM Tris-Cl (pH 7.4), 1 mM PMSF (phenylmethylsulfonyl fluoride), 1 mM EGTA, 1 mM EDTA, 50 mM NaF, and 20 μM leupeptin and were lysed by sonication. The homogenate was centrifuged at 100,000×g for 15 min at 4° C. to obtain the cytosolic fraction (supernatant) and membrane (pellet). The pellet was resuspended in the homogenizing buffer by sonication. Protein concentration was measured using the Coomassie Plus (Bradford) Protein Assay kit (Pierce, USA). Following quantification, 20 μg of protein from each sample was subjected to SDS-PAGE analysis in 4-20% gradient Tris-Glycine gel (Invitrogen, USA). The separated protein was then transferred to nitrocellulose membrane. The membrane was blocked with BSA at room temperature for 15 min and was incubated with primary antibody over night at 4° C. After the incubation, it was washed three times with TBS-T (Tris Buffered saline-Tween 20) and further incubated with alkaline phosphatase conjugated secondary antibody (Jackson Immunoresearch Laboratories, USA) at 1:10,000 dilution for 45 min. The membrane was finally washed three times with TBS-T and developed using the 1-step NBT-BCIP substrate (Pierce, USA). Western Blot was imaged in the ImageQuant RT-ECL (GE Life Sciences, Piscataway, N.J.) and densitometric quantification was performed using the IMAL software (Blanchette Rockefeller Neurosciences Institute, Morgantown, W. Va.). For translocation assays, PKC activation was represented as the percentage of total protein in the membrane (membrane/cytosol+membrane).
Cells were grown in two chambered slides (Nunc, USA) at low density. For immunofluorescence staining, the cells were washed with PBS (pH 7.4) and fixed with 4% paraformaldehyde for 4 min. Following fixation, the cells were blocked and permeabilized with 5% serum and 0.3% Triton X 100 in 1×PBS for 30 min. […] Six individual fields at 63× oil lens magnification were analyzed for the mean fluorescence intensity (MFI) in each channel. […]

PKC-ε [5] = test: PKC-ε translocation to membrane in SH-SY5Y cells (Western blot); format: cell-based, human; conditions: ASPD; ADDL at 20-fold higher concentrations
Procedure: as §2
Equal amounts of proteins were loaded in each lane (20 μg) for both the cytosol and membrane fractions. Activation of PKC was calculated as the percentage of total PKC in the membrane (membrane/cytosol+membrane).

PKC-ε [6] = test: PKC-ε mRNA by RT-PCR in primary rat hippocampal neurons; format: cell-based; conditions: controls and ASPD-treated cells
Procedure: RNA was isolated from the cells using Trizol reagent (Invitrogen, USA) following the manufacturer's protocol. Briefly, 5 μg of total RNA was reverse transcribed using oligo (dT) and Superscript III (Invitrogen, USA) at 50° C. for 1 hr. Two μl of the cDNA product was amplified using primers for PKC-ε (Forward Primer—[…], Reverse primer—[…]), and β-tubulin (Forward Primer—[…], Reverse primer—[…]) (Origene, Rockville, Md.) for 25 cycles following standard PCR protocols and 55° C. annealing temperature. The PCR amplicons were analyzed in an E-Gel (Invitrogen, USA). The gel image was documented using a Fuji Image gel scanner (FLA-9000, Fuji Film) and densitometric quantification was performed using the IMAL software (Blanchette Rockefeller Neurosciences Institute, Morgantown, W. Va.). Data were represented as normalized ratio of PKC-ε OD (Optical Density) against β-tubulin OD for three independent experiments.
Primary neurons were treated with ASPD and/or DCPLA-ME. PKC-ε mRNA was quantified by RT-PCR as described above. RNA prepared from control and treated cultured primary rat hippocampal neurons were isolated and reverse transcribed. Individual cDNA was amplified for PKC-ε and β-actin. PKC-ε expression was normalized to β-actin.

[7] = test system: rat hippocampal primary neurons; test: Synaptic marker immunofluorescence in rat hippocampal primary neurons; format: cell-based
Procedure: Cells were grown in two chambered slides (Nunc, USA) at low density. For immunofluorescence staining, the cells were washed with PBS (pH 7.4) and fixed with 4% paraformaldehyde for 4 min. Following fixation, the cells were blocked and permeabilized with 5% serum and 0.3% Triton X 100 in 1×PBS for 30 min. The cells were washed three times with 1×PBS and incubated with primary antibodies for 1 hr at 1:100 dilution. The incubation slides were then washed again three times in 1×PBS and were incubated with the FITC anti-rabbit IgG and Rhodamine anti-mouse IgG for 1 hr at 1:400 dilution. The cells were further washed and treated with DAPI (4′,6-diamidino-2′-phenylindole, dihydrochloride) (Thermo Scientific, USA) to stain the nucleus. Finally, the slides were washed and mounted in Pro Long Gold antifade mounting solution (Invitrogen, USA) and were viewed under the LSM 710 Meta confocal microscope (Zeiss) at 350 nm, 490 nm, and 540 nm excitation and 470 nm, 525 nm, and 625 nm emission for DAPI, FITC, and Rhodamine respectively. Six individual fields at 63× oil lens magnification were analyzed for the mean fluorescence intensity (MFI) in each channel. The co-localization correlation generated by the ZEN software (Zeiss).
To estimate the synaptic damage caused by the ASPDs on primary hippocampal neurons, the expression of synaptophysin (a presynaptic marker) and PSD-95 (a postsynaptic marker) was measured by immunofluorescence staining. […] Following a 20 hr incubation period, the cells were stained for nucleus, PSD-95, and synaptophysin. Expression levels were calculated as the change of percentage in mean fluorescence intensity compared to untreated cells.
Primary neurons, treated and untreated, were immunostained for MAP-2, synaptophysin, and PSD-95 to determine the synaptic integrity. […] Following a 20 hr incubation period, the cells were stained for MAP-2, PSD-95, and synaptophysin as described above.

synaptophysin = test: Synaptophysin Western Blot in primary rat hippocampal neurons; format: cell-based; conditions: ASPD
Procedure: as §2

[8] = 50 nM ASPD alone (ASPD) or with 100 nM DCPLA-ME, 20 hr
[9] = 50 nM ASPD alone (ASPD) or with RA and Bryostatin-1, 20 hr

Which “Viability of primary neuron (Mean ± SEM)” value ([1]; 0.5 nM) does the source give for “ASPD: amylospheroids, Aβ1-42 assemblies retained by a 100 kDa filter” here?
The value was 95.12 ± 0.733 % of control.

And the “Viability of primary neuron (Mean ± SEM)” value ([1]; 1 nM)?
Its value is 89.64 ± 5.99 % of control.

What about the “Viability of primary neuron (Mean ± SEM)” value ([1]; 2 nM) of the same substance?
The value was 87.75 ± 0.94 % of control.

And the “Viability of primary neuron (Mean ± SEM)” value ([1]; 5 nM)?
The value was 70.95 ± 1.89 % of control.

What about the “Viability of primary neuron (Mean ± SEM)” value ([1]; 10 nM) of the same substance?
Its value is 68.68 ± 0.84 % of control.

And the “Viability of primary neuron (Mean ± SEM)” value ([1]; 50 nM)?
The value was 57.55 ± 3.35 % of control.

What about the viability of neurons ([1]; 50 nM) of the same substance?
Its viability of neurons is 57.1±4.9%.

And the “Viability of primary neuron (Mean ± SEM)” value ([1]; 500 nM)?
The value was 52.94 ± 3.75 % of control.

What about the “viability of primary neurons” value ([2]; 50 nM ASPD alone, 20 hr) of the same substance?
Its value is 57.6±1.6%.

What about the “viability (Example 25)” value ([2]; 50 nM ASPDs alone (ASPD) or with the treatment named, 24 hr) of the same substance?
The value was 57.61%±1.59.

What about the “viability compared to the untreated cells” value [3] of the same substance?
Its value is 77.15±0.49%.

What about the “PKC-ε immunofluorescence level compared to control” value (PKC-ε [4]) of the same substance?
Its value is 60.81±5.85%.

What about the PKC-ε membrane translocation (PKC-ε [5]) of the same substance?
Its PKC-ε membrane translocation is 69.98±3.27%.

What about the “reduction of PKC-ε translocation” value (PKC-ε [5]) of the same substance?
Its value is 46%.

And the “PKC-ε transcript levels (in words)” value (PKC-ε [6])?
Its value is “did not change PKC-ε mRNA significantly”.

And the “MAP-2 expression (mean fluorescence intensity)” value [7, 8]?
The value was 40.7±6.2%.

What about the “PSD-95 expression (mean fluorescence intensity)” value [7, 8] of the same substance?
The value was 67.63±7.24%.

What about the “synaptophysin expression (mean fluorescence intensity)” value [7, 8] of the same substance?
Its value is 63.3±3.8%.

What about the “Mean fluorescence intensity of PSD-95” value [7, 9] of the same substance?
Its value is 8.16±1.21.

What about the “Mean fluorescence intensity of synaptophysin” value [7, 9] of the same substance?
Its value is 9.74±2.5.

What about the “decrease of PSD-95 expression” value ([7]; 50 nM ASPD, 20 hr) of the same substance?
Its value is 42%.

What about the “decrease in synaptophysin intensity” value ([7]; 50 nM ASPDs, 1 μM ADDLs, 20 hr) of the same substance?
The value was 40%.

And the “synaptophysin intensity compared to the control” value ([7]; 50 nM ASPDs, 1 μM ADDLs, 20 hr)?
The value was 62.45±6.74%.

And the “decrease of synaptophysin expression by Western Blot” value (synaptophysin)?
Its value is 26%.

What about the “synaptophysin expression by Western Blot” value (synaptophysin) of the same substance?
Its value is 73.30%±3.319.
